The text below walks through data of patent US11339160B2, “Imidazole and triazole containing bicyclic compounds as JAK inhibitors” (THERAVANCE BIOPHARMA R&D IP, LLC, priority 2019, dated 2022).

One data set concerns the target JAK3 (Homo sapiens (Human), UniProt P52333). Description: Biochemical JAK3 kinase assay (LanthaScreen). The settings on record: for JAK3 (pKi)-JAK1 (pKi): selectivity, difference of pKi values. The method, then:
(§1) Assay 1: Biochemical JAK and Tyk2 Kinase Assays
(§2) A panel of four LanthaScreen JAK biochemical assays (JAK1, 2, 3 and Tyk2) were carried in a common kinase reaction buffer (50 mM HEPES, pH 7.5, 0.01% Brij-35, 10 mM MgCl2, and 1 mM EGTA). Recombinant GST-tagged JAK enzymes and a GFP-tagged STAT1 peptide substrate were obtained from Life Technologies.
Serially or discretely diluted compounds were pre-incubated with each of the four JAK enzymes and the substrate in white 384-well microplates (Corning) at ambient temperature for 1 h. ATP was subsequently added to initiate the kinase reactions in 10 μL total volume, with 1% DMSO. […] Kinase reactions were allowed to proceed for 1 hour at ambient temperature before a 10 μL preparation of EDTA (10 mM final concentration) and Tb-anti-pSTAT1 (pTyr701) antibody (Life Technologies, 2 nM final concentration) in TR-FRET dilution buffer (Life Technologies) was added. The plates were allowed to incubate at ambient temperature for 1 h before being read on the EnVision reader (Perkin Elmer). Emission ratio signals (520 nm/495 nm) were recorded and utilized to calculate the percent inhibition values based on DMSO and background controls.
(§3) For dose-response analysis, percent inhibition data were plotted vs. compound concentrations, and IC50 values were determined from a 4-parameter robust fit model with the Prism software (GraphPad Software). Results were expressed as pIC50 (negative logarithm of IC50) and subsequently converted to pKi (negative logarithm of dissociation constant, Ki) using the Cheng-Prusoff equation.

Data set [1] concerns IL-2 stimulated STAT5 phosphorylation in CD4+ T cells isolated from murine splenocytes. Description: Inhibition of IL-2 stimulated pSTAT5 in CD4+ T cells isolated from murine splenocytes. Type of data set: cell-based. The settings on record: Mus musculus, IL-2 7 ng/ml, read-out: pIC50, inhibition of IL-2 stimulated pSTAT5 (converted). The method, then: Assay 3: Inhibition of IL-2 Stimulated pSTAT5 in CD4+ T Cells Isolated from Murine Splenocytes
The potency of test compounds for inhibition of interleukin-2 (IL-2) stimulated STAT5 phosphorylation was measured in the CD4+ T cells isolated from murine splenocytes using AlphaLisa. Because IL-2 signals through JAK3, this assay provides a measure of JAK3 cellular potency in mouse.
Phosphorylated STAT5 was measured via the AlphaLISA SureFire Ultra pSTAT5 (Tyr694/699) kit (PerkinElmer).
CD4+ T cells were isolated from murine splenocytes via negative selection on a magnetic column (Miltnyi Biotec) and re-suspended in assay media (phenol red-free DMEM (Life Technologies) supplemented with 10% FBS (ATCC)). Cells were seeded at 50,000 cells/well in assay media (2 μL/well). Compounds were serially diluted in DMSO and diluted to 2× final concentration in assay media. Compound was added (4 μl/well) and the cells incubated at 37° C., 5% CO2 for 1 hour, followed by the addition of IL-2 (R&D Systems; final concentration 7 ng/ml) in pre-warmed assay media (2 μL) for 30 minutes. After cytokine stimulation, cells were lysed with 2 μl of 5× AlphaLisa Lysis Buffer (PerkinElmer). The lysate was shaken at 900 rpm for 10 minutes at room temperature (RT). Phosphorylated STAT5 was measured via the pSTAT5 AlphaLisa kit (PerkinElmer). Freshly prepared acceptor bead mixture was dispensed onto lysate (5 ul) under green filtered <100 lux light. Plates were shaken at 900 rpm for 2 mins, briefly spun down, and incubated for 2 hrs at RT in the dark. Donor beads were dispensed (5 μl) under green filtered <100 lux light. Plates were shaken at 900 rpm for 2 mins, briefly spun down, and incubated overnight at RT in the dark. Luminescence was measured with excitation at 689 nm and emission at 570 nm using an EnVision plate reader (PerkinElmer) under green filtered <100 lux light.
To determine the inhibitory potency of test compounds in response to IL-2, the average emission intensity of beads bound to pSTAT5 was measured in primary CD4+ T cells isolated from murine splenocytes. IC50 values were determined from analysis of the inhibition curves of signal intensity vs compound concentration. Data are expressed as pIC50 (negative decadic logarithm IC50) values (mean standard deviation).

Data set [2] can be described thus: Colon and plasma mouse pharmacokinetics. Type of data set: in vivo. The settings on record: male Balb/c mice, 10 mg/kg PO, 0.5, 2 and 6 h. The method, then: Assay 6: Colon and Plasma Mouse Pharmacokinetics
6 male Balb/c mice were administered 10 mg/kg of compound in 1% HPMC+0.1% Tween-80 by PO administration. At 0.5, 2 and 6 hours after dose administration, animals were anesthetized, and terminal blood samples were collected by cardiac puncture, followed by collection of colon contents and colon tissue.
Blood samples were collected into K2EDTA and stored on wet ice until processed to plasma by centrifugation (12,000 rpm at 4° C.). Plasma samples were transferred to cluster tubes and placed on dry ice prior to freezer storage. The colon contents from each animal were collected at each terminal blood collection time point. The colon tissues were flushed with saline and patted dry. The colon and colon content tissues were homogenized using sterile water containing 0.1% formic acid 9:1 (water:tissue, v/w). […] All samples were analyzed using LC/MS/MS against analytical standards.
The composite pharmacokinetic parameters of the compounds were determined by non-compartmental analysis using Phoenix WinNonlin Version 6 (Certara, St. Louis, Mo.) and using mean values from 2 animals/time point. For plasma concentrations below the quantification limit (BQL), the lowest concentration measurable or the BLOQ (below limit of quantification) was used.
A colon to plasma ratio was determined as the ratio of the colon AUC to the plasma AUC.

The next data set deals with Caco-2 cell monolayers. Description: Caco-2 permeation assay. The note with it: 5 μM, A to B, + Verapamil 25 μM; unit taken from the thresholds in the same block.
The next data set concerns the target JAK1 (Homo sapiens (Human), UniProt P23458). Description: Biochemical JAK1 kinase assay (LanthaScreen). The note with it: 1 h pre-incubation, ATP at Km 25 μM; pKi from pIC50 by Cheng-Prusoff. The method, then:
as §1, §2
Serially or discretely diluted compounds were pre-incubated with each of the four JAK enzymes and the substrate in white 384-well microplates (Corning) at ambient temperature for 1 h. ATP was subsequently added to initiate the kinase reactions in 10 μL total volume, with 1% DMSO. […] The plates were allowed to incubate at ambient temperature for 1 h before being read on the EnVision reader (Perkin Elmer). Emission ratio signals (520 nm/495 nm) were recorded and utilized to calculate the percent inhibition values based on DMSO and background controls.
as §3

JAK3, sequence (P52333 whole entry): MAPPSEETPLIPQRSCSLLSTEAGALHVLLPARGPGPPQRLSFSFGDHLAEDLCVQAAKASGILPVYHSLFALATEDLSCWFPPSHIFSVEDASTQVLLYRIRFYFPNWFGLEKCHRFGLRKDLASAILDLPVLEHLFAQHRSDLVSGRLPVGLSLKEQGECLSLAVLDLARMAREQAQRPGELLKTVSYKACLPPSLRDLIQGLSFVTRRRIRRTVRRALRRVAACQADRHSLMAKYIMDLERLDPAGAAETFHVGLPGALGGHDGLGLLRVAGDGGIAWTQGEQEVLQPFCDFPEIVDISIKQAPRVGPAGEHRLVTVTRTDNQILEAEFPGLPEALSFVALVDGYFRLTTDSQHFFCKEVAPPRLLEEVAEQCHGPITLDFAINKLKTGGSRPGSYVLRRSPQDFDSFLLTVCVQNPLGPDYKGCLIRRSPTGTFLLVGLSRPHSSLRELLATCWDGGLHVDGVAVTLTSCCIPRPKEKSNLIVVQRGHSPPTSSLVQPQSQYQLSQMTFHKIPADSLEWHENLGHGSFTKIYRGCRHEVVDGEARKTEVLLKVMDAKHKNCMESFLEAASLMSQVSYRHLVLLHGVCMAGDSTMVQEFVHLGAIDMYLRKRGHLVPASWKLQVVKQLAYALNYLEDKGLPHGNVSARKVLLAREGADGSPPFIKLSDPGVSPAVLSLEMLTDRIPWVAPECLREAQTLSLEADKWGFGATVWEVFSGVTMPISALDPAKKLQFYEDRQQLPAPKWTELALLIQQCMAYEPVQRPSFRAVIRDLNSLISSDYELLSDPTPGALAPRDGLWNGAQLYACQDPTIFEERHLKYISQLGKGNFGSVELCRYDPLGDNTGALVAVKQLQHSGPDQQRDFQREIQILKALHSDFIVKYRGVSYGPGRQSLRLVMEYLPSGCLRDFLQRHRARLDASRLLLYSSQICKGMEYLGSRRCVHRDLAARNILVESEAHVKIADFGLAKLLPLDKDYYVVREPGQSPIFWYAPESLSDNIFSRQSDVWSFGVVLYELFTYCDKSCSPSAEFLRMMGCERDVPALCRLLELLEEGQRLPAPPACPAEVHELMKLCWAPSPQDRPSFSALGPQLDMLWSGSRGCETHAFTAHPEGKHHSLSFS
JAK1, sequence (P23458 whole entry): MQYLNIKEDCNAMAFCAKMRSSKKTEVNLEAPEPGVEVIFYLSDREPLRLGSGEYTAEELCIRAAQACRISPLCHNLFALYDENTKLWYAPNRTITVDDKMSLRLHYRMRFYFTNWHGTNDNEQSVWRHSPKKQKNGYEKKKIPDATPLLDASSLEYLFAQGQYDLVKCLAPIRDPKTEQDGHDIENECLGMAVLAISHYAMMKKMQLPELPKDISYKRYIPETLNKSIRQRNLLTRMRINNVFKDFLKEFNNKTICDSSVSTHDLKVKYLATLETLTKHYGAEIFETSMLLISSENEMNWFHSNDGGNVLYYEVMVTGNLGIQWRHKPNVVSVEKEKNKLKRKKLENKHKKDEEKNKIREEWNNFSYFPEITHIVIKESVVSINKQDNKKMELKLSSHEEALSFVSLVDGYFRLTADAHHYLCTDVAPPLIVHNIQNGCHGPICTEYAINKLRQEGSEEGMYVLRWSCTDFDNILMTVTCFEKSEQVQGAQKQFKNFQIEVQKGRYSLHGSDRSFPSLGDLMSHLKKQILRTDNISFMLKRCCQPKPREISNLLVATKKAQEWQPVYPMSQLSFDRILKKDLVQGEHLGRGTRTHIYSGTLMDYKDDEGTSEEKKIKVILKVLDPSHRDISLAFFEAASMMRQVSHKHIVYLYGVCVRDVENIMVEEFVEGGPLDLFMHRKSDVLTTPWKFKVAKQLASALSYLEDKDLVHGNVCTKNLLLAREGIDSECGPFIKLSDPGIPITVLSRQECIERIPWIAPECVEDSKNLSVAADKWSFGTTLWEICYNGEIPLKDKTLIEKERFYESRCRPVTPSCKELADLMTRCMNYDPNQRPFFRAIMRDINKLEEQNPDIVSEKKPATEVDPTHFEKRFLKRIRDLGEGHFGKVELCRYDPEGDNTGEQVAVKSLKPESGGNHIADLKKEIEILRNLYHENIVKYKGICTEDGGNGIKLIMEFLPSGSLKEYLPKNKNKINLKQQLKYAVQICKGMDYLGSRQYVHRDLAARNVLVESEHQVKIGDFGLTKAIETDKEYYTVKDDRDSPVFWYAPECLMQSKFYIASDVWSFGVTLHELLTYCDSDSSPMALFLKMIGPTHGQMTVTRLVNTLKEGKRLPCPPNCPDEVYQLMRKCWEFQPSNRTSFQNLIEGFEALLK
Experimental for Caco-2 cell monolayers: The Caco-2 permeation assay was performed to model the ability of test compounds to pass through the intestine and get into the blood stream after oral administration. The rate at which test compounds in solution permeate a cell monolayer designed to mimic the tight junction of human small intestinal monolayers was determined.
CacoReady 24-well transwell plates were obtained from ADMEcell (Alameda, Calif.). The compounds were evaluated at a concentration of 5 μM from 10 mM DMSO stock solutions in duplicate (n=2). The passive permeability of the compounds tested was evaluated using Caco-2 cell monolayers along with Verapamil (25 μM) to inhibit P-gp transport proteins in the apical to basolateral (A-B) direction. The experiment was conducted in a 37° C., 5% CO2 incubator. Caco-2 culture media consisted of standard filtered DMEM, FCS 10%, L-Glutamine 1% and PenStrep 1%. Basal assay plate was prepared by adding 750 μL of transport buffer to A-B wells. A CacoReady™ plate was prepared by removing the Caco-2 media from the apical wells and replacing with fresh transport media (200 μL repeated for a total of 3 washes). Blank media (200 μL) was then replaced with diluted compound for A-B wells. […] The permeation coefficient (Kp, mean A to B+Verapamil Papparent) in cm/sec was calculated as dQ (flux)/(dt×Area×concentration). […]

As for `C=CC(=O)N1CC(COc2cc(-c3cc(F)c(O)cc3CC)cn3cncc23)C1` [Example 13, 1-(3-(((6-(2-ethyl-5-fluoro-4-hydroxyphenyl)imidazo[1,5-a]pyridin-8-yl)oxy)methyl)azetidin-1-yl)prop-2-en-1-one], at JAK3, the “JAK3 (pKi)-JAK1 (pKi)” value was “A (a value of 3 or above)”. Further, in data set [1], the IC50 is < 1000 nM.

As for `C=CC(=O)N1CC[C@@H](Oc2cc(-c3ccc(O)cc3)cn3cncc23)C[C@H]1C` [Example 15, 1-((2R,4R)-4-((6-(4-hydroxyphenyl)imidazo[1,5-a]pyridin-8-yl)oxy)-2-methylpiperidin-1-yl)prop-2-en-1-one], the “JAK3 (pKi)-JAK1 (pKi)” value at JAK3 is “A (a value of 3 or above)”. In data set [1], the IC50 is < 1000 nM.

For the compound `C=CC(=O)N1CC(COc2cc(-c3cc(F)c(O)c(Cl)c3)cn3cncc23)C1` [Example 31], the “JAK3 (pKi)-JAK1 (pKi)” value at JAK3 is listed as “A (a value of 3 or above)”. Besides, the IC50 in data set [1] was < 1000 nM.

On to `C=CC(=O)N1C[C@H](Nc2ncnc3[nH]ccc23)CC[C@@H]1C` [PF-06651600, 2-propen-1-one, 1-[(2S,5R)-2-methyl-5-(7H-pyrrolo[2,3-d]pyrimidin-4-ylamino)-1-piperidinyl]], for which, in data set [2], the “colon to plasma ratio (colon AUC to plasma AUC)” value was 2.8. Moreover, the Kp value in the data set with Caco-2 cell monolayers was found to be 25 ×10⁻⁶ cm/s.

In the case of `C=CC(=O)N1CC(COc2cc(-c3ccc(O)c(C)c3)cn3cncc23)C1` [Example 34], the “JAK3 (pKi)-JAK1 (pKi)” value at JAK3 is on record as “A (a value of 3 or above)”. Moreover, in data set [1], the IC50 was < 1000 nM.

`CCc1cc(O)c(F)cc1-c1cc(OCC2CN(C(=O)/C=C/CN(C)C)C2)c2cncn2c1` [Example 24]: the “JAK3 (pKi)-JAK1 (pKi)” value on JAK3 is listed as “A (a value of 3 or above)”. For the same compound, the IC50 in data set [1] is < 1000 nM.

Regarding `C=CC(=O)N1CC(COc2cc(-c3ccc(O)c(F)c3F)cn3cncc23)C1` [Example 8, 1-(3-(((6-(2,3-difluoro-4-hydroxyphenyl)imidazo[1,5-a]pyridin-8-yl)oxy)methyl)azetidin-1-yl)prop-2-en-1-one], the “JAK3 (pKi)-JAK1 (pKi)” value at JAK3 was “A (a value of 3 or above)”. The IC50 in data set [1] was < 1000 nM.

`C=CC(=O)N1CCC(N(C)c2cc(-c3ccc(O)cc3)cn3cncc23)CC1` [Example 17]: on JAK3 (1 h pre-incubation, ATP at Km 1.6 μM, pKi from pIC50 by Cheng-Prusoff, read-out: JAK 3 (pKi) (converted)), the Ki was 1 to 10 nM. On JAK3, the “JAK3 (pKi)-JAK1 (pKi)” value is “B (a value of 2.3 to 3)”. The “JAK 1 (pKi)” value at JAK1 was “E (a pKi value of 7 or below (Ki of 100 nM or above))”.

As to `C=CC(=O)N1CC(COc2cc(-c3ccc(O)cc3)cn3cncc23)C1` [Example 11, 1-(3-(((6-(4-hydroxyphenyl)imidazo[1,5-a]pyridin-8-yl)oxy)methyl)azetidin-1-yl)prop-2-en-1-one], the “JAK3 (pKi)-JAK1 (pKi)” value at JAK3 is “A (a value of 3 or above)”. Further, in data set [1], the IC50 was < 1000 nM.

On to `C=CC(=O)N1CC(C(C)(C)Oc2cc(-c3ccc(O)cc3)cn3cncc23)C1` [Example 28], for which the “JAK3 (pKi)-JAK1 (pKi)” value on JAK3 is “A (a value of 3 or above)”. In addition, in data set [1], the IC50 is < 1000 nM.

For the compound `C=CC(=O)N1CC(COc2cc(-c3ccc(O)c(Cl)c3)cn3cncc23)C1` [Example 12, 1-(3-(((6-(3-chloro-4-hydroxyphenyl)imidazo[1,5-a]pyridin-8-yl)oxy)methyl)azetidin-1-yl)prop-2-en-1-one], the “JAK3 (pKi)-JAK1 (pKi)” value on JAK3 is on record as “A (a value of 3 or above)”. Moreover, the IC50 in data set [1] is < 1000 nM.

`C=CC(=O)N1CC(COc2cc(-c3cc(Cl)c(O)c(OC)c3)cn3cncc23)C1` [Example 9, 1-(3-(((6-(3-chloro-4-hydroxy-5-methoxyphenyl)imidazo[1,5-a]pyridin-8-yl)oxy)methyl)azetidin-1-yl)prop-2-en-1-one]: the “JAK3 (pKi)-JAK1 (pKi)” value at JAK3 is listed as “A (a value of 3 or above)”. For the same compound, in data set [1], the IC50 was < 1000 nM.

Take `C=CC(=O)N1CC(COc2cc(-c3c(F)cc(O)cc3F)cn3cncc23)C1` [Example 7, 1-(3-(((6-(2,6-difluoro-4-hydroxyphenyl)imidazo[1,5-a]pyridin-8-yl)oxy)methyl)azetidin-1-yl)prop-2-en-1-one]: at JAK3, the “JAK3 (pKi)-JAK1 (pKi)” value is recorded as “A (a value of 3 or above)”. Further, the IC50 in data set [1] is < 1000 nM.
